Assay results from patent publication US9462808B2, “Pesticidal compositions” (Syngenta Participants AG, priority 2010, dated 2016).
Like-named read-outs stand apart in the source and are kept apart here.

How the values were obtained:
[1] = test system: Rhopalosiphum padi (cereal aphid); test: Activity against Rhopalosiphum padi (cereal aphid) on wheat, spray with safener cloquintocet, 6 days after application (Example B1); type: in vivo; details: 144 h
Procedure: One replicate consisted of 4 wheat plants per pot. […] 9 days after seeding all wheat plants (10replicates) were sprayed with respective test solutions. […] 6 days after application aphid mortality and phytotoxicity were evaluated. […] Additionally the average plant height per replicate was measured.

[2] = test system: Nilaparvata lugens (brown plant hopper, BPH); test: Activity against Nilaparvata lugens (brown plant hopper, BPH) on rice, spray with safeners, 7 d after application (Example B2); type: in vivo; details: 168 h
Procedure: Eight replicates (pots with rice plants) were sprayed with respective test solutions. Test solutions contained the formulated test compound and the safener cloquintocet and N-(2-methoxybenzoyl)-4-[(methylaminocarbonyl)amino]-benzenesulfonamide at different ratios. 4 pots were infested with plant hopper nymphs right after application. 7d after application BPH mortality and plant safety were evaluated. […] Assessment on plant safety was done by measuring the average plant height per replicate.

SMILES	melting point	also measured
CCOC(=O)OC1=C(c2cc(C)ccc2C)C(=O)N(C)C12CCN(OC)CC2 [Compound P1.1]	96 to 110 °C	–
CCOC(=O)OC1=C(c2c(C)cc(C)cc2C)C(=O)N(CC)C12CCN(OC)CC2 [Compound P1.8]	101 to 103 °C	–
CCOC(=O)OC1=C(c2cc(C)c(C)cc2Br)C(=O)N(C)C12CCN(OC)CC2 [Compound P1.20]	158 to 159 °C	–
CCOC(=O)OC1=C(c2cc(C)c(C)cc2Cl)C(=O)N(C)C12CCN(OC)CC2 [Compound P1.22]	149 to 150 °C	–
CCOC(=O)OC1=C(c2c(C)cc(Cl)cc2C)C(=O)N(C)C12CCN(OC)CC2 [Compound P1.29]	–	mortality at 25 ppm ([1]; read-out: Efficacy (% mortality) against cereal aphids (Rhopalosiphum padi), test compound 25 ppm, adjuvant Mero 0.1% v/v, ratio AI:safener cell blank (no safener), wheat, 6 days after application, Abbott's formula): 97%; mortality at 25 ppm ([1]; read-out: Efficacy (% mortality) against cereal aphids (Rhopalosiphum padi), test compound 25 ppm, adjuvant Mero 0.1% v/v, safener cloquintocet, ratio AI:safener 1:1, wheat, 6 days after application, Abbott's formula): 96.6%; mortality at 25 ppm ([1]; read-out: Efficacy (% mortality) against cereal aphids (Rhopalosiphum padi), test compound 25 ppm, adjuvant Mero 0.1% v/v, safener cloquintocet, ratio AI:safener 1:2, wheat, 6 days after application, Abbott's formula): 96.9%; mortality at 12.5 ppm ([2]; read-out: % mortality, corr., 12.5 ppm AI, Cloquintocet, ratio AI:safener 0.9:1, 7 d after application): 98%; mortality at 12.5 ppm ([2]; read-out: % mortality, corr., 12.5 ppm AI, Safener 2, ratio AI:safener 0.9:1, 7 d after application): 65%; mortality at 25 ppm ([2]; read-out: % mortality, corr., 25 ppm AI, Cloquintocet, ratio AI:safener 1.9:1, 7 d after application): 100%; mortality at 25 ppm ([2]; read-out: % mortality, corr., 25 ppm AI, Safener 2, ratio AI:safener 1.9:1, 7 d after application): 95%; mortality at 50 ppm ([2]; read-out: % mortality, corr., 50 ppm AI, Safener 2, ratio AI:safener 1.25:1, 7 d after application): 100%; mortality at 100 ppm ([2]; read-out: % mortality, corr., 100 ppm AI, Safener 2, ratio AI:safener 7.5:1, 7 d after application): 100%; mortality at 200 ppm ([2]; read-out: % mortality, corr., 200 ppm AI, Safener 2, ratio AI:safener 15:1, 7 d after application): 100%
COCON1C(=O)C(c2cc(C)ccc2C)=C(OC(=O)CC(C)(C)C)C12CCN(OC)CC2 [Compound P1ii.5]	93 to 95 °C	–
COCON1C(=O)C(c2cc(C)ccc2C)=C(OC)C12CCN(OC)CC2 [Compound P1ii.31]	91 to 93 °C	–
CCOC(=O)OC1=C(c2c(F)ccc(C)c2Cl)C(=O)N(OCOC)C12CCN(OC)CC2 [Compound P1ii.61]	116 to 119 °C	–
CCOC(=O)OC1=C(c2c(C)cc(Cl)cc2C)C(=O)N(OC)C12CCN(OC)CC2 [Compound P1ii.114]	122 to 125 °C	–
CON1CCC2(CC1)C(O)=C(c1cc(C)ccc1C)C(=O)N2C [Compound P2.1]	121 to 123 °C	–
CON1CCC2(CC1)C(O)=C(c1c(C)cc(C)cc1C)C(=O)N2CC1CC1 [Compound P2.8, 1-Cyclopropylmethyl-4-hydroxy-8-methoxy-3-(2,4,6-trimethyl-phenyl)-1,8-diaza-spiro[4.5]dec-3-en-2-one]	223 to 225 °C	–
CCN1C(=O)C(c2c(C)cc(C)cc2C)=C(O)C12CCN(OC)CC2 [Compound P2.11]	218 to 221 °C	–
CON1CCC2(CC1)C(O)=C(c1cc(C)c(C)cc1Br)C(=O)N2C [Compound P2.23]	191 to 193 °C	–
CON1CCC2(CC1)C(O)=C(c1cc(C)c(C)cc1C)C(=O)N2C [Compound P2.25]	183 to 186 °C	–
CON1CCC2(CC1)C(O)=C(c1cc(C)c(C)cc1Cl)C(=O)N2C [Compound P2.26, 3-(2-Chloro-4,5-dimethyl-phenyl)-4-hydroxy-8-methoxy-1-methyl-1,8-diaza-spiro[4.5]dec-3-en-2-one]	191 to 192 °C	–
CON1CCC2(CC1)C(O)=C(c1cc(Br)c(C)cc1C)C(=O)N2C [Compound P2.28]	182 to 183 °C	–
COCON1C(=O)C(c2c(C)cc(-c3ccc(Cl)cc3)cc2C)=C(O)C12CCN(OC)CC2 [Compound P2ii.15, 3-(4′-Chloro-3,5-dimethyl-biphenyl-4-yl)-4-hydroxy-8-methoxy-1-methoxymethoxy-1,8-diaza-spiro[4.5]dec-3-en-2-one]	128 °C (dec.)	–
CON1CCC2(CC1)C(O)=C(c1c(C)cc(C)cc1C)C(=O)N2OCCOC1CCCCO1 (stereo not shown) [Compound P2ii.22]	135 to 137 °C	–
COCON1C(=O)C(c2c(F)ccc(C)c2Cl)=C(O)C12CCN(OC)CC2 [Compound P2ii.60]	155 to 158 °C	–
COCCON1C(=O)C(c2cc(Br)c(C)cc2C)=C(O)C12CCN(OC)CC2 [Compound P2ii.73]	63 to 64 °C	–
CON1CCC2(CC1)C(O)=C(c1cc(Br)c(C)cc1C)C(=O)N2OC [Compound P2ii.75]	86 to 87 °C	–
COCCON1C(=O)C(c2cc(Br)c(F)cc2C)=C(O)C12CCN(OC)CC2 [Compound P2ii.87]	71 to 74 °C	–
COCON1C(=O)C(c2cc(Br)c(F)cc2C)=C(O)C12CCN(OC)CC2 [Compound P2ii.89]	64 to 67 °C	–
CON1CCC2(CC1)C(O)=C(c1c(C)cc(C)cc1C)C(=O)N2OCC1CCCCC1 [Compound P2ii.96]	169 to 172 °C	–
COCCON1C(=O)C(c2c(C)cc(Cl)cc2C)=C(O)C12CCN(OC)CC2 [Compound P2ii.101]	161 to 164 °C	–
CON1CCC2(CC1)C(O)=C(c1c(C)cc(Cl)cc1C)C(=O)N2OC [Compound P2ii.102]	88 to 92 °C	–
COCON1C(=O)C(c2c(C)cc(Cl)cc2C)=C(O)C12CCN(OC)CC2 [Compound P2ii.104]	176 to 178 °C	–
CON1CCC2(CC1)C(O)=C(c1c(C)cc(Cl)cc1C)C(=O)N2OC1CCCO1 (stereo not shown) [Compound P2ii.105]	137 to 139 °C	–
